Measured values as given in PMC12257299 (RSC Advances, 2025).

Biological target: GSK-3β (Homo sapiens, UniProt P49841)
Test: ADP-Glo kinase assay with Promega GSK-3β enzyme
Format: biochemical

Chain of GSK-3β (P49841 whole entry): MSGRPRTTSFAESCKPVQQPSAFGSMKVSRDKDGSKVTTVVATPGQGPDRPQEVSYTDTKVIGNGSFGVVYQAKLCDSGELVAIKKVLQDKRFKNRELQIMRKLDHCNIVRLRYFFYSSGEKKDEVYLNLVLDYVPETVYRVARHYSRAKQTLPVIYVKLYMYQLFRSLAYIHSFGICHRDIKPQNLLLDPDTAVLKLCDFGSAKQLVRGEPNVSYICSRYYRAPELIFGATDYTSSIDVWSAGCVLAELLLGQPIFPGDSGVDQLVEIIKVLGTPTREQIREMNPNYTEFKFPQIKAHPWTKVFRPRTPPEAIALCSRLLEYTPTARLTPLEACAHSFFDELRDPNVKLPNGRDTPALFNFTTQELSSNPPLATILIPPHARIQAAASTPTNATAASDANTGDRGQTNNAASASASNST

IC50: 59.8 µM
Structure (SMILES): COc1ccc(Cn2cc(CN3C(=O)C(=NNc4ccccc4)c4ccccc43)nn2)cc1 [6Ec, 1-((1-(4-Methoxybenzyl)-1H-1,2,3-triazol-4-yl)methyl)-3-(2-phenylhydrazono) indolin-2-one]
